Measured values from patent US5382572A, “Alkyl and acyl substituted quinolines” (Schering Corporation, priority 1993, dated 1995).
Read-outs that look alike come from different tables or passages of the source.

Key:
[1] = Compound toxicity assay: 3H-leucine incorporation (translational activity) in HeLa cells; assay type: cell-based; details: human, reduction of leucine incorporation, read-out: CYTOTOXICITY 3H-LEU ASSAY IC50
Procedure: HeLa cells were treated with inhibitory compound for 24 hours, after which levels of translational activity were assayed.
For assay of translational activity, HeLa cultures were grown to 80% confluency in 96 well microtiter plates, treated with appropriate concentrations of compound in 2% EMEM during an overnight incubation at 37° C., then rinsed with HBSS and overlaid with […] of 2% EMEM containing 8 μCi of tritiated leucine (141 Cμ/mMol, Amersham Corp., Arlington Heights Ill.). After a 1 hour incubation at 36.5° C., the cells were rinsed twice with phosphate buffered saline (PBS) and lysed in 400 μl/well of 1×PBS, 0.5% sodium dodecyl sulphate (SDS). After a 10 min incubation at 36.5° C., the contents of the well were transferred to a well in a Millititer HA microfiltration plate (Millipore Corp., Bedford, Mass.). The TCA-insoluble proteins were precipitated onto the filter disc by a 10-minute-fixation with 5% TCA, followed by filtration under vacuum and three 10-minute-rinses with 95% ethanol. The filters were dried at room temperature, cut from the millititer plate and transferred to scintillation vials. TCA precipitable counts were assayed in 5 ml of Scintisol (Isolab, Akron, Ohio). The inhibitory activity of a compound was plotted versus the concentration and an IC50 value (that concentration of the compound required to decrease cellular translational activity by 50%) was derived for each compound.
Cytotoxicity refers to the IC50 values in the 3H-leucine (3H-Leu) incorporation. The IC50 values in this test refer to the concentration of the compound in micrograms/milliliter which reduces leucine incorporation by 50%.

[2] = tested on: HSV-2 (strain MS); experiment: HSV-β-gal assay: transient expression of beta-galactosidase in transfected HeLa cells superinfected with HSV-2; assay type: cell-based; details: Human alphaherpesvirus 2, HeLa, 24 h, inhibition of beta-galactosidase expression, MOI 5 pfu/cell, read-out: ANTI-HSV ACTIVITY HSV-β-GAL ASSAY IC50
Procedure: HeLa and Vero cell cultures were maintained in Eagle's Minimal Essential Medium (EMEM) which was supplemented with glutamine, penicillin, streptomycin and 10% fetal calf serum (10% EMEM). Stock cultures of HSV-2 (strain MS available from ATCC VR-540) were grown in and harvested from Vero cells. Viral stocks were titered in Vero cells according to established procedures.
Plasmid pON 245^ori- contains the promoter of the HSV-1 thymidine kinase (tk) gene located immediately 5' of the E. coli lac Z gene. In this arrangement, the tk promoter controls transcription from the bacterial gene in transient expression assays. Additionally, an SV40 polyadenylation signal is present at the 3'-end of the lac Z gene to allow for the efficient translation of the mRNA in eucaryotic cells. The expression of beta-galactosidase in a transient assay using pON 245^ori- is dependent upon superinfection of the transfected cells with HSV. […] For example, see European Patent Application No. 8302149.5 filed Mar. 11, 1988 and published Sep. 14th 1988 as 282,330, the disclosure of which is incorporated herein by reference thereto.
HeLa cells were seeded into 96 well microtiter plates and allowed to grow to 80% confluency (approximately 35000 cells/well). One half microgram of plasmid pON 245^ori- DNA was introduced into the cells of each well by the […] precipitation technique (Grahman and Van der Eb, 1973). Four to six hours later, the cells were rinsed with Hank's Balanced Salt Solution (HBSS), overlaid with 10% EMEM and incubated at 37° C. At 24 hour post-transfection, cells were rinsed, overlaid with 10% EMEM again and re-incubated at 37° C. At 48 hours. post-transfection, cells were rinsed and overlaid with either EMEM containing 2% fetal calf serum (2% EMEM), 2% EM EM containing HSV-2 (strain MS, Multiplicity of Infection [moil =5 pfu/cell) or 2% EMEM containing HSV-2 and the appropriate concentration of the compound to be tested. Twenty-four hours later, the cells were harvested and assayed for beta-galactosidase activity as described below.
(§1) All determinations of beta-galactosidase activity were performed in 96 well microtiter plates. The intracellular level of beta-galactosidase activity in each well was determined from cell lysates of the monolayer cultures. Aliquots were assayed by incubation in the presence of beta-galactosiclasesubstrate, 4-methyl-umbelliferyl-β-D-galactoside (MUG, 125 μg/ml, Sigma), for 2 hour. The generation of fluorescent product was quantified on a Microfluor microfluorimeter (Dynatech) after addition of 0.1M glycine, pH 10.3 (Spaete and Mocarski, 1985). The inhibitory activity of a compound was plotted versus the concentration and an IC50 value (the concentration of compound required to reduce beta-galactosidase expression by 50%) was obtained for each compound tested.
Anti-HSV activity refers to the IC50 values in the HSV-β-gal assay which measures anti-viral activity in terms of inhibition of beta-galactosidase expression. The IC50 values refer to the concentration of the compound in micrograms/milliliter needed to reduce beta-galactosidase expression by 50%.

[3] = tested on: HSV-2, strain MS; experiment: Prophylactic guinea pig model of HSV-2 infection; assay type: in vivo; details: test compounds 60 mg/kg s.c., T.I.D., 10 days, from 24 hours before infection; for MLS (Maximum Lesion Scores): scale of 1 (least) to 4 (severe), placebo 3; for NEUROLOGICAL DYSFUNCTIONS (percentage animals developing loss of bladder/hindlimb control): placebo 87
Procedure: The in vive assessment of anti-HSV efficacy was determined in the prophylactic guinea pig model of HSV infection described by Stansberry et al (1982). Dosing of guinea pigs comprised an initial treatment with test compound given 24 hours prior to virus infection and subsequent administration of the compound every eight hours (T.I.D.) for a total of 10 days. Test compounds were administered subcutaneously in 0.5% buffered methyl celluslose at a dose of 60 mg per kg body weight of the animal. Animals were monitored daily for the development of genital lesions and neurological symptomology, both of which were recorded and compared to the results obtained with parallel groups which received placebo or acyclovir treatment. Efficacy was evaluated for each compound by scoring the ability of the compound to ameliorate genital lesions produced by infection with HSV-2, strain MS, expressed as Maximum Lesion Scores (MLS) on a scale of 1 (least lesion) to 4 (severe lesions).

[4] = tested on: antiviral activity of lidocaine or lidocaine hydrochloride; details: added to lidocaine or lidocaine hydrochloride; Haines et al.; cited from earlier work
[5] = tested on: CMV (strain Towne); experiment: CMV-β-Gal assay: beta-galactosidase transient expression assay with CMV; assay type: cell-based; details: Human betaherpesvirus 5, read-out: ANTI-CMV ACTIVITY CMV-β-Gal ASSAY IC50, CMV strain Towne
Procedure: as §1
Human foreskin fibroblast (HHF) cell cultures were grown in 10% EMEM. CMV (strain Towne received from Stanford University) was grown and titered in HHF cells. Plasmids pON 249 and pON 241 Δ NH3, containing CMV promoter genes, were used in the β-galactosidase transient expression assay as shown above.

[6] = CMV toxicity assay: tritiated leucine (3H-Leu) assay in HFF cells; assay type: cell-based; details: HFF cells (human foreskin fibroblast); read-out: CYTOTOXICITY 3H-LEU ASSAY IC50

SMILES | CC50 at 24 h ([1]; *Repeat) | CC50 at 24 h ([1]; first value) | IC50 ([2]; *Repeat) | IC50 ([2]; first value) | MLS (Maximum Lesion Scores) [3] | NEUROLOGICAL DYSFUNCTIONS (percentage animals developing loss of bladder/hindlimb control) [3] | enhancement of antiviral activity of lidocaine or lidocaine hydrochloride [4] | IC50 ([5]; first value) | IC50 ([5]; second value marked * (repeat)) | CC50 [6]
CCCCCCCn1c(=O)c(C(OC(C)=O)OC(C)=O)c(OC(C)=O)c2ccccc21 [Formula 1.11] | 43 µg/mL | 25 µg/mL | 10 µg/mL | 8 µg/mL | – | – | – | – | – | –
C=CCOC(=O)Cn1c(=O)c(C(OC(C)=O)OC(C)=O)c(OC(C)=O)c2ccccc21 [Formula 1.16] | – | 43 µg/mL | – | 10 µg/mL | – | – | – | – | – | –
CCCCCCn1c(=O)c(C(OC(C)=O)OC(C)=O)c(OC(C)=O)c2cc(C)ccc21 [Formula 1.9] | 37 µg/mL | 32 µg/mL | 8 µg/mL | 6 µg/mL | 2.5 | 75% | – | – | – | –
CC(=O)Oc1c(C(OC(C)=O)OC(C)=O)c(=O)n(C)c2ccccc12 [Formula 1.5] | 25 µg/mL | 25 µg/mL | 3 µg/mL | 4 µg/mL | 1.3 | 0% | – | – | – | –
CC(=O)Oc1c(C(OC(C)=O)OC(C)=O)c(=O)n(Cc2ccccc2)c2ccc(C)cc12 [Formula 1.10] | – | 18 µg/mL | – | 7 µg/mL | – | – | – | – | – | –
CCCCCCn1c(=O)c(C(OC)OC)c(OC)c2cc(C)ccc21 [Formula 1.17] | – | 30 µg/mL | – | 5 µg/mL | – | – | – | – | – | –
CC(C)(CO)[C@@H](O)C(=O)NCCC(=O)O [pantothenic acid] | – | – | – | – | – | – | significantly enhances the antiviral activity | – | – | –
CCC(=O)Oc1c(C(OC(=O)CC)OC(=O)CC)c(=O)n(C)c2ccccc12 [Formula 1.12] | 29 µg/mL | 29 µg/mL | 7 µg/mL | 8 µg/mL | – | – | – | – | – | –
CC(=O)Oc1c(C(OC(C)=O)OC(C)=O)c(=O)n(-c2ccccc2)c2ccccc12 [Formula 1.7] | 18 µg/mL | 20 µg/mL | 4 µg/mL | 4 µg/mL | – | – | – | – | – | –
CCCCC(=O)Oc1c(C(OC(=O)CCCC)OC(=O)CCCC)c(=O)n(C)c2ccccc12 [Formula 1.8] | > 10 µg/mL | 30 µg/mL | 4 µg/mL | 5 µg/mL | – | – | – | – | – | –
CC(C)(CO)[C@@H](O)C(=O)NCCCO [dexpanthenol] | – | – | – | – | – | – | significantly enhances the antiviral activity | – | – | –
COc1ccc(OCCCOCn2c(=O)c(C(OC(C)=O)OC(C)=O)c(OC(C)=O)c3ccccc32)c(Cl)c1 [Formula 1.14] | – | 30 µg/mL | – | 9 µg/mL | 1.8 | 12% | – | 16 µg/mL | 18 µg/mL | 50 µg/mL
CC(=O)Oc1ccc2c(c1)c(OC(C)=O)c(C(OC(C)=O)OC(C)=O)c(=O)n2Cc1ccccc1 [Formula 1.2] | 3 µg/mL | 21.5 µg/mL | 2.5 µg/mL | 3 µg/mL | – | – | – | – | – | –
COc1c(C(OC(C)=O)OC(C)=O)c(=O)n(C)c2ccccc12 [Formula 1.13] | – | 18 µg/mL | – | 8 µg/mL | – | – | – | – | – | –
Nc1nc2c(ncn2COCCO)c(=O)[nH]1 [Acyclovir, 9-[(2-hydroxyethoxy)methyl]guanine, reference compound] | – | – | – | – | 1.5 | 50% | – | – | – | –
CCCCCCn1c(=O)c(C(OC(C)=O)OC(C)=O)c(OC)c2cc(C)ccc21 [Formula 1.4] | – | 2.5 µg/mL | – | 3 µg/mL | – | – | – | – | – | –
COc1c(C(OC(C)=O)OC(C)=O)c(=O)n(Cc2ccccc2)c2ccc(C)cc12 [Formula 1.3] | – | 2.7 µg/mL | – | 3 µg/mL | 1.8 | 0% | – | – | – | –
CC(=O)Oc1c(C(OC(C)=O)OC(C)=O)c(=O)n(Cc2ccccc2)c2ccccc12 [Formula 1.6] | 37 µg/mL | 32 µg/mL | 8 µg/mL | 4 µg/mL | – | – | – | 7 µg/mL | 8 µg/mL | 28 µg/mL
CC(=O)Oc1c(C(OC(C)=O)OC(C)=O)c(=O)n(Cc2ccccc2)c2ccc(OCc3ccccc3)cc12 [Formula 1.15] | 40 µg/mL | 29 µg/mL | 10 µg/mL | 10 µg/mL | – | – | – | – | – | –
CCCCCCn1c(=O)c(C(OC(C)=O)OC(C)=O)c(OC)c2ccccc21 [Formula 1.1] | – | 6 µg/mL | – | 1.4 µg/mL | – | – | – | – | – | –
